SMILES strings stand for the structures.

In this experiment the test system is Human Umbilical Vein Endothelial cells (VEGF-stimulated). The experiment can be described thus: HUVEC proliferation assay, VEGF-stimulated. Type of experiment: cell-based. Conditions: VEGF 50 ng/mL, 72 h, CyQuant, read-out: inhibited VEGF-stimulated HUVEC proliferation at a level. The method, boiled down: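 Pooled-donor HUVECs (passage 2–3) seeded in DMEM+10% FBS for 22 h, then pre-treated 2–3 h with five-point, five-fold compound dilutions (0.25% DMSO final). Stimulated with 50 ng/mL VEGF (bFGF 20 ng/mL on separate plates) for 72 h at 37 °C. CyQuant fluorescence (485/530 nm) after freeze-thaw; IC50 from 4-parameter fit.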
For `O=C(Nc1cccc(C(OC[C@@H]2CCCN2)(C(F)(F)F)C(F)(F)F)c1)c1cccnc1NCc1ccncc1` [Example 1138, 2-[(Pyridin-4-ylmethyl)-amino]-N-{3-[2,2,2-trifluoro-1-(pyrrolidin-2-ylmethoxy)-1-trifluoromethyl-ethyl]-phenyl}-nicotinamide], the IC50 was < 0.05 µM.
As to `CN1CCC(CCCOc2cc(CNc3ncccc3C(=O)Nc3cccc(C(F)(F)F)c3)ccn2)CC1` [Example 923, 2-({2-[3-(1-Methyl-piperidin-4-yl)-propoxy]-pyridin-4-ylmethyl}-amino)-N-(3-trifluoromethyl-phenyl)-nicotinamide], the IC50 is < 0.05 µM.
With `CC1(C)CN(Cc2cc[n+]([O-])cc2)c2cc(NC(=O)c3cccnc3NCc3ccncc3)ccc21` [Example 1099, N-[3,3-Dimethyl-1-(1-oxy-pyridin-4-ylmethyl)-2,3-dihydro-1H-indol-6-yl]-2-[(pyridin-4-ylmethyl)-amino]-nicotinamide] the figure was < 0.05 µM.
Regarding `CN1CCC[C@H]1COc1cc(NC(=O)c2cccnc2NCc2ccncn2)cc(C(F)(F)F)c1` [Example 1025, N-(3-((((2S)-1-Methyl-2-pyrrolidinyl)methyl)oxy)-5-(trifluoromethyl)phenyl)-2-((4-pyrimidinylmethyl)amino)-3-pyridinecarboxamide], the IC50 was < 0.05 µM.
To `O=C(Nc1cc(CCCN2CCCCC2)cc(C(F)(F)F)c1)c1cccnc1NCc1ccncc1` [Example 963, N-[3-(3-Piperidin-1-yl-propyl)-5-trifluoromethyl-phenyl]-2-[(pyridin-4-ylmethyl)-amino]-nicotinamide] belongs < 0.05 µM.
For the molecule `O=C(Nc1ccc(C(F)(F)C(F)(F)F)c(OC[C@@H](O)CN2CCCC2)c1)c1cccnc1NCc1ccncc1` [Example 952, (S) N-[3-(2-Hydroxy-3-pyrrolidin-1-yl-propoxy)-4-pentafluoroethyl-phenyl]-2-[(pyridin-4-ylmethyl)-amino]-nicotinamide], the IC50 is < 0.05 µM.
With `CC1(C)CNC(=O)c2cc(NC(=O)c3cccnc3NCc3ccncc3)ccc21` [Example 946, N-(4,4-Dimethyl-1-oxo-1,2,3,4-tetrahydro-isoquinolin-7-yl)-2-[(pyridin-4-ylmethyl)-amino]-nicotinamide] the figure was < 0.05 µM.
With `CNc1nccc(CNc2ncccc2C(=O)Nc2ccc3c(c2)N(C(C)=O)CC3(C)C)n1` [Example 1045, N-(1-acetyl-3,3-dimethyl-2,3-dihydro-1H-indol-6-yl)-2-(((2-(methylamino)-4-pyrimidinyl)methyl)amino)-3-pyridinecarboxamide] the figure was < 0.05 µM; with `CNc1cc(CNc2ncccc2C(=O)Nc2cc(OC[C@@H]3CCCO3)cc(C(F)(F)F)c2)ccn1` [Example 1080, 2-(((2-(methylamino)-4-pyridinyl)methyl)amino)-N-(3-(((2S)-tetrahydro-2-furanylmethyl)oxy)-5-(trifluoromethyl)phenyl)-3-pyridinecarboxamide], < 0.05 µM.
With `COc1nccc(CNc2ncccc2C(=O)Nc2cc(OC[C@@H]3CCCN3C)cc(C(F)(F)F)c2)n1` [Example 1047, 2-(((2-(methyloxy)-4-pyrimidinyl)methyl)amino)-N-(3-((((2S)-1-methyl-2-pyrrolidinyl)methyl)oxy)-5-(trifluoromethyl)phenyl)-3-pyridinecarboxamide], the IC50 was < 0.05 µM.
With `CC1(C)CC(=O)Nc2cc(NC(=O)c3cccnc3NCc3ccncc3)ccc21` [Example 1114, N-(4,4-Dimethyl-2-oxo-1,2,3,4-tetrahydro-quinolin-7-yl)-2-[(pyridin-4-ylmethyl)-amino]-nicotinamide] the figure was < 0.05 µM; with `COc1cc(CNc2ncccc2C(=O)Nc2ccc3c(c2)NC(=O)CC3(C)C)ccn1` [Example 1116, N-(4,4-Dimethyl-2-oxo-1,2,3,4-tetrahydro-quinolin-7-yl)-2-[(2-methoxy-pyridin-4-ylmethyl)-amino]-nicotinamide], < 0.05 µM.
On to `CNc1nccc(CNc2ncccc2C(=O)Nc2ccc3c(c2)CNCC3(C)C)n1` [Example 1038, N-(4,4-Dimethyl-1,2,3,4-tetrahydro-7-isoquinolinyl)-2-(((2-(methylamino)-4-pyrimidinyl)methyl)amino)-3-pyridinecarboxamide], for which the IC50 was < 0.05 µM.
Consider `CNc1nccc(CNc2ncccc2C(=O)Nc2cc(NC(=O)O[C@H]3CCOC3)cc(C(F)(F)F)c2)n1` [Example 1089, (3S)-tetrahydro-3-furanyl 3-(((2-(((2-(methylamino)-4-pyrimidinyl)methyl)amino)-3-pyridinyl)carbonyl)amino)-5-(trifluoromethyl)phenylcarbamate], for which the IC50 was < 0.05 µM.
Regarding `CC1(C)CCNc2cc(NC(=O)c3cccnc3NCc3ccnc(N4CCOCC4)c3)ccc21` [Example 1154, N-(4,4-Dimethyl-1,2,3,4-tetrahydro-quinolin-7-yl)-2-[(2-morpholin-4-yl-pyridin-4-ylmethyl)-amino]-nicotinamide], the IC50 is < 0.05 µM.
Turning to `O=C(Nc1cccc(C(F)(F)F)c1)c1cccnc1NCc1ccc2ncccc2c1` [Example 169, {2-[(6-Quinolylmethyl)amino](3-pyridyl)}-N-[3-(trifluoromethyl)phenyl]carboxamide], the IC50 is < 0.05 µM.
In the case of `O=C(Nc1cc(CCCN2CCOCC2)cc(C(F)(F)F)c1)c1cccnc1NCc1ccncc1` [Example 964, N-[3-(3-Morpholin-4-yl-propyl)-5-trifluoromethyl-phenyl]-2-[(pyridin-4-ylmethyl)-amino]-nicotinamide], the IC50 is < 0.05 µM.
As for `CNc1cc(CNc2ncccc2C(=O)Nc2cc(O[C@@H]3CCOC3)cc(C(F)(F)F)c2)ccn1` [Example 1083, 2-(((2-(methylamino)-4-pyridinyl)methyl)amino)-N-(3-((3R)-tetrahydro-3-furanyloxy)-5-(trifluoromethyl)phenyl)-3-pyridinecarboxamide], the IC50 was < 0.05 µM.
Regarding `CC(=O)N1CC(C)(C)c2ccc(NC(=O)c3cccnc3Nc3ccc4c(c3)OCCO4)cc21` [Example 991, N-(1-Acetyl-3,3-dimethyl-2,3-dihydro-1H-indol-6-yl)-2-(2,3-dihydro-benzo[1,4]dioxin-6-ylamino)-nicotinamide], the IC50 is < 0.05 µM.
With `CN1CCC(CCCOc2cc(CNc3ncccc3C(=O)Nc3ccc(C(F)(F)F)cc3)ccn2)CC1` [Example 922, 2-({2-[3-(1-Methyl-piperidin-4-yl)-propoxy]-pyridin-4-ylmethyl}-amino)-N-(4-trifluoromethyl-phenyl)-nicotinamide], the IC50 is < 0.05 µM.
Turning to `O=C(Nc1ccc(C(F)(F)F)c(OCCN2CCCC2)c1)c1cccnc1NCc1ccncn1` [Example 1024, 2-((4-Pyrimidinylmethyl)amino)-N-(3-((2-(1-pyrrolidinyl)ethyl)oxy)-4-(trifluoromethyl)phenyl)-3-pyridinecarboxamide], the IC50 was < 0.05 µM.
As to `COc1cc(CNc2ncccc2C(=O)Nc2ccc3c(c2)CNCC3(C)C)ccn1` [Example 1177, N-(4,4-Dimethyl-1,2,3,4-tetrahydro-isoquinolin-7-yl)-2-[(2-methoxy-pyridin-4-ylmethyl)-amino]-nicotinamide], the IC50 is < 0.05 µM.
Turning to `O=C(Nc1cccc(C(F)(F)F)c1)c1ccc(F)nc1NCc1ccncc1` [Example 156, {6-Fluoro-2-[(4-pyridylmethyl)amino](3-pyridyl)}-N-[3-(trifluoromethyl)phenyl]carboxamide], the IC50 is < 0.05 µM.
With `CNc1cc(CNc2ncccc2C(=O)Nc2cc(OC[C@@H]3CCCN3C)cc(C(F)(F)F)c2)ccn1` [Example 1143, 2-[(2-Methylamino-pyridin-4-ylmethyl)-amino]-N-[3-(1-methyl-pyrrolidin-2-ylmethoxy)-5-trifluoromethyl-phenyl]-nicotinamide] the figure was < 0.05 µM.

Values taken from patent US7687643B2, “Process for preparing 3,3-dimethylindolines” (Amgen Inc., priority 2001, dated 2010).
